Results as given in patent US9301954B2, “Pharmaceutical composition for the prevention or treatment of osteoarthritis containing rebamipide as an active ingredient” (HANLIM PHARMACEUTICAL CO., LTD, priority 2010, dated 2016).
“Also recorded” adds a separate entry of the source.

Tested on: MIA-induced osteoarthritis rats
Assay: Therapeutic efficacy of oral rebamipide in monosodium iodoacetate (MIA)-induced osteoarthritis in rats
Type: in vivo, Wistar rats
Experimental: About 5 week old male Wistar rats were used. Monosodium iodoacetate (MIA) was dissolved in a physiological saline; and then administered to the rats in the dose of 4 mg/50 μl via the right knee thereof, so as to induce osteoarthritis. The rats were divided into 3 groups, each having 5 rats. The first group (non-arthritis) was a non-treated group, i.e., a normal control group. The second group (MIA) was an osteoarthritis-induced group through the MIA administration. The rats of the third group (MIA+Rebamipide) were administered with the MIA to induce osteoarthritis; and then orally administered with rebamipide every day for 7 days. At the 7th day after the MIA induction, the femurs and the tibias were isolated from the rats of each group and then observed under a dissecting microscope. After H&E staining, the knee joint sites were observed through a low-magnification lens. In the results, the nucleus is shown in blue-violet color and the cytoplasm is shown in pink color. […] The knee joints were stained with Safranin O, which can show losses of the cartilage proteoglycans. The tartrate-resistant acid phosphatase (TRAP) staining for osteoclasts, was performed at 37° C. for 30 minutes, using a leukocyte acid phosphatase kit (Sigma 387-A, USA). The TRAP-positive cells were shown in red-violet color. The multinucleated cells (having above 3 nuclei) were considered as TRAP-positive cells (osteoclasts), which were counted under an optical microscope.

Structure (SMILES): O=C(NC(Cc1cc(=O)[nH]c2ccccc12)C(=O)O)c1ccc(Cl)cc1 (stereo not drawn) [rebamipide]
- Inflammation by H&E staining (MIA+Rebamipide group in comparison with the MIA group, oral, 7 days): favorably changed
- Cartilage damage by histological analyses (TRAP, safranin O, H&E staining) (MIA+Rebamipide group vs MIA group, oral, 7 days): remained intact without destruction
- Safranin O staining of femoral cartilage site (proteoglycan loss, surface) (MIA+Rebamipide group, oral, 7 days, similar to the non-arthritis group): smooth and shown in strong orange-red color
- Cartilage damage of isolated femurs and tibias observed under a dissecting microscope (male Wistar rats, MIA 4 mg/50 μl via right knee, rebamipide orally every day for 7 days, 7th day after MIA induction): significantly inhibited; also recorded: little damages in the cartilage sites
- Number of osteoclasts in the tibial subchondral bone via TRAP staining (rebamipide group in comparison with the MIA group, oral, 7 days): significantly reduced
- Histology grade evaluation (standards of Table 1, FIG. 3): cartilage surface and safranin O loss (rebamipide-treated group, oral, 7 days): only a little loss of safranin O in the cartilage site
